In patent US11661426B2, “Imidazole-containing inhibitors of ALK2 kinase” (BioCryst Pharmaceuticals, Inc., priority 2017, dated 2023):
pIC50: −log10 of the molar value.

Biological target: ALK2 (Homo sapiens (Human), UniProt Q04771)
Experiment: ALK2 inhibition, LanthaScreen Eu Kinase Binding Assay (ThermoFisher Scientific / Life Technologies)
Settings: read-out: Measured Ki (IC50) Value for Compounds: IC50
Method: Biochemical assays to measure the inhibitory effects of the compounds were performed by ThermoFisher Scientific (Life Technologies). ALK2 inhibition was tested using LanthaScreen™ Eu Kinase Binding Assay screening protocol.

ALK2, sequence (Q04771 21-509): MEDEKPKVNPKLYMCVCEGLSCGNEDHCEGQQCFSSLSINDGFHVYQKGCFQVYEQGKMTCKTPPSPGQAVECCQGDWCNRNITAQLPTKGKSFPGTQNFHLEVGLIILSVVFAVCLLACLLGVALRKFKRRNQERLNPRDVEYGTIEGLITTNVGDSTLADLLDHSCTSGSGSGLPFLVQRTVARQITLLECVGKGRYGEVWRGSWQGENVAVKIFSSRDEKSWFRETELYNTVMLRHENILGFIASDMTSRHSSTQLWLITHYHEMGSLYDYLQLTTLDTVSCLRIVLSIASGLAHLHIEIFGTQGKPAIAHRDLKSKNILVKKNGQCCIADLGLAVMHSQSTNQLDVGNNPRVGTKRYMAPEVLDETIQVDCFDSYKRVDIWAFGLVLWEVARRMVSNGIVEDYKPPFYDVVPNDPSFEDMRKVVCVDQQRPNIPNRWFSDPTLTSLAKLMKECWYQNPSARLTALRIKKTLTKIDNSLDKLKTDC

Compound	pIC50
CN1CCN(c2nc(Nc3cn(-c4ccccc4)cn3)c3cccn3n2)CC1 [Compound 35a, 2-(4-methylpiperazin-1-yl)-N-(1-phenyl-1H-imidazol-4-yl)pyrrolo[2,1-f][1,2,4]triazin-4-amine]	6.00 to 7.00
OC[C@@H]1CCCN1c1nc(Nc2cn(-c3cccc(OC(F)(F)F)c3)cn2)nn2cccc12 [Compound 262d, (S)-(1-(2-((1-(3-(trifluoromethoxy)phenyl)-1H-imidazol-4-yl)amino)pyrrolo[2,1-f][1,2,4]triazin-4-yl)pyrrolidin-2-yl)methanol]	< 6.00
COc1cc(-c2ccc(Nc3nc(N4CCC[C@H]4C(N)=O)nc4ccccc34)nc2)cc(OC)c1OC [Compound 371a, (S)-1-(4-((5-(3,4,5-trimethoxyphenyl)pyridin-2-yl)amino)quinazolin-2-yl)pyrrolidine-2-carboxamide]	< 6.00
COc1cc(-n2cnc(Nc3nc(N4CCC[C@H]4CO)c4cccn4n3)c2)cc(C(N)=O)c1OC [Compound 231a, (S)-5-(4-((4-(2-(hydroxymethyl)pyrrolidin-1-yl)pyrrolo[2,1-f][1,2,4]triazin-2-yl)amino)-1H-imidazol-1-yl)-2,3-dimethoxybenzamide]	6.00 to 7.00
OC[C@@H]1CCCN1c1nc(Nc2cn([C@H]3CC[C@H](O)CC3)cn2)c2cccn2n1 [Compound 470e, (trans)-4-(4-((2-((S)-2-(hydroxymethyl)pyrrolidin-1-yl)pyrrolo[2,1-f][1,2,4]triazin-4-yl)amino)-1H-imidazol-1-yl)cyclohexanol]	6.00 to 7.00
OC[C@@H]1CCCN1c1nc(Nc2cn(-c3ccccc3)cn2)nn2cccc12 [Compound 172a, (S)-(1-(2-((1-phenyl-1H-imidazol-4-yl)amino)pyrrolo[2,1-f][1,2,4]triazin-4-yl)pyrrolidin-2-yl)methanol]	6.00 to 7.00
COc1cc(-n2cnc(Nc3nc(N4CCC[C@H]4C(N)=O)nc4ncn(C)c34)c2)cc(OC)c1OC [Compound 390b, (S)-1-(7-methyl-6-((1-(3,4,5-trimethoxyphenyl)-1H-imidazol-4-yl)amino)-7H-purin-2-yl)pyrrolidine-2-carboxamide]	< 6.00
OC[C@@H]1CCCN1c1nc(Nc2cn(-c3ccccc3)cn2)c2scc(Br)c2n1 [Compound 87c, (S)-(1-(7-bromo-4-((1-phenyl-1H-imidazol-4-yl)amino)thieno[3,2-d]pyrimidin-2-yl)pyrrolidin-2-yl)methanol]	6.00 to 7.00
Cn1cnc(-n2cnc(Nc3nc(N4CCCC4c4ccccn4)nn4cccc34)c2)c1 (centres unmarked) [Compound 81c, N-(1′-methyl-1′H-[1,4′-biimidazol]-4-yl)-2-(2-(pyridin-2-yl)pyrrolidin-1-yl)pyrrolo[2,1-f][1,2,4]triazin-4-amine]	< 6.00
c1ccc(C2CCCN2c2nc(Nc3cn(C4CC4)cn3)c3cccn3n2)cc1 (centres unmarked) [Compound 30a, N-(1-cyclopropyl-1H-imidazol-4-yl)-2-(2-phenylpyrrolidin-1-yl)pyrrolo[2,1-f][1,2,4]triazin-4-amine]	6.00 to 7.00
OC[C@@H]1CCCN1c1nc(Nc2cn(-c3ccc(OC(F)(F)F)cc3)cn2)c2cccn2n1 [Compound 414d, (S)-(1-(4-((1-(4-(trifluoromethoxy)phenyl)-1H-imidazol-4-yl)amino)pyrrolo[2,1-f][1,2,4]triazin-2-yl)pyrrolidin-2-yl)methanol]	6.00 to 7.00
OC[C@@H]1CCCN1c1nc(Nc2cn(C3CCC3)cn2)c2cccn2n1 [Compound 43a, (S)-(1-(4-((1-cyclobutyl-1H-imidazol-4-yl)amino)pyrrolo[2,1-f][1,2,4]triazin-2-yl)pyrrolidin-2-yl)methanol]	> 7.00
COc1cc(-n2cnc(Nc3nc(N4CCC[C@H]4CO)c4c(C)nn(C5CCCCO5)c4n3)c2)cc(OC)c1OC (stereo partly drawn) [Compound 402b, ((2S)-1-(3-methyl-1-(tetrahydro-2H-pyran-2-yl)-6-((1-(3,4,5-trimethoxyphenyl)-1H-imidazol-4-yl)amino)-1H-pyrazolo[3,4-d]pyrimidin-4-yl)pyrrolidin-2-yl)methanol]	> 7.00
c1ccc(-n2cnc(Nc3nc(N4CCCC4c4ccccn4)nn4cccc34)c2)cc1 (centres unmarked) [Compound 9a, N-(1-phenyl-1H-imidazol-4-yl)-2-(2-(pyridin-2-yl)pyrrolidin-1-yl)pyrrolo[2,1-f][1,2,4]triazin-4-amine]	6.00 to 7.00
COc1cc(-n2cnc(Nc3nc(N4CCC[C@H]4CO)nn4c(C(C)O)ccc34)c2)cc(OC)c1OC (stereo partly drawn) [Compound 99b, 1-(2-((S)-2-(hydroxymethyl)pyrrolidin-1-yl)-4-((1-(3,4,5-trimethoxyphenyl)-1H-imidazol-4-yl)amino)pyrrolo[2,1-f][1,2,4]triazin-7-yl)ethanol]	> 7.00

Second part, the compound after the results:

pIC50	Compound
> 7.00	COc1cc(-n2cnc(Nc3nc(N4CCC[C@H]4C(N)=O)nc4c3CCCC4)c2)cc(OC)c1OC [Compound 302a, (S)-1-(4-((1-(3,4,5-trimethoxyphenyl)-1H-imidazol-4-yl)amino)-5,6,7,8-tetrahydroquinazolin-2-yl)pyrrolidine-2-carboxamide]
> 7.00	COc1cc(-n2cnc(Nc3nc(N4CCC[C@@H]4C(N)=O)nc4cc(F)ccc34)c2)cc(OC)c1OC [Compound 288a, (R)-1-(7-fluoro-4-((1-(3,4,5-trimethoxyphenyl)-1H-imidazol-4-yl)amino)quinazolin-2-yl)pyrrolidine-2-carboxamide]
> 7.00	COc1cc(-n2cnc(Nc3nc(N4CCC[C@H]4CO)c4cnn(C)c4n3)c2)cc(OC)c1OC [Compound 338b, (S)-(1-(1-methyl-6-((1-(3,4,5-trimethoxyphenyl)-1H-imidazol-4-yl)amino)-1H-pyrazolo[3,4-d]pyrimidin-4-yl)pyrrolidin-2-yl)methanol]
> 7.00	COc1cc(-n2cnc(Nc3nc(N4CCC[C@H]4C(N)=O)nc4cc(C#N)ccc34)c2)cc(OC)c1OC [Compound 345c, (S)-1-(7-cyano-4-((1-(3,4,5-trimethoxyphenyl)-1H-imidazol-4-yl)amino)quinazolin-2-yl)pyrrolidine-2-carboxamide]
> 7.00	COc1cc(-n2cnc(Nc3nc4c(c(N5CCC[C@H]5CO)n3)CS(=O)(=O)CC4)c2)cc(OC)c1OC [Compound 273c, (S)-4-(2-(hydroxymethyl)pyrrolidin-1-yl)-2-((1-(3,4,5-trimethoxyphenyl)-1H-imidazol-4-yl)amino)-7,8-dihydro-5H-thiopyrano[4,3-d]pyrimidine 6,6-dioxide]
> 7.00	COc1cc(-n2cnc(Nc3nc4c(c(N5CCC[C@H]5CO)n3)CN(C(=O)C3CC3)CC4)c2)cc(OC)c1OC [Compound 239a, (S)-cyclopropyl(4-(2-(hydroxymethyl)pyrrolidin-1-yl)-2-((1-(3,4,5-trimethoxyphenyl)-1H-imidazol-4-yl)amino)-7,8-dihydropyrido[4,3-d]pyrimidin-6(5H)-yl)methanone]
> 7.00	COc1cc(-n2cnc(Nc3nc(N4CCC[C@H]4CO)nn4c(CN5CCOCC5)ccc34)c2)cc(OC)c1OC [Compound 111b, (S)-(1-(7-(morpholinomethyl)-4-((1-(3,4,5-trimethoxyphenyl)-1H-imidazol-4-yl)amino)pyrrolo[2,1-f][1,2,4]triazin-2-yl)pyrrolidin-2-yl)methanol]
> 7.00	COc1cc(-n2cnc(Nc3nc(-c4ccccc4C(N)=O)nn4cccc34)c2)cc(OC)c1OC [Compound 135a, 2-(4-((1-(3,4,5-trimethoxyphenyl)-1H-imidazol-4-yl)amino)pyrrolo[2,1-f][1,2,4]triazin-2-yl)benzamide]
> 7.00	(R)-(1-(5-((1-(3,4,5-trimethoxyphenyl)-1H-imidazol-4-yl)amino)thiazolo[5,4-d]pyrimidin-7-yl)pyrrolidin-2-yl)methanol [Compound 323b]
> 7.00	COc1cc(-n2cnc(Nc3nc(N4CCC[C@H]4C(N)=O)nc4c3CCN(CCC(N)=O)C4)c2)cc(OC)c1OC [Compound 255a, (S)-1-(7-(3-amino-3-oxopropyl)-4-((1-(3,4,5-trimethoxyphenyl)-1H-imidazol-4-yl)amino)-5,6,7,8-tetrahydropyrido[3,4-d]pyrimidin-2-yl)pyrrolidine-2-carboxamide]
> 7.00	COc1cc(-n2cnc(Nc3nc(N4CCC[C@@H]4C(N)=O)nc4ccoc34)c2)cc(OC)c1OC [Compound 300a, (R)-1-(4-((1-(3,4,5-trimethoxyphenyl)-1H-imidazol-4-yl)amino)furo[3,2-d]pyrimidin-2-yl)pyrrolidine-2-carboxamide]
> 7.00	COc1cc(-n2cnc(Nc3nc(-c4cccc(C=O)c4)nn4cccc34)c2)cc(OC)c1OC [Compound 110a, 3-(4-((1-(3,4,5-trimethoxyphenyl)-1H-imidazol-4-yl)amino)pyrrolo[2,1-f][1,2,4]triazin-2-yl)benzaldehyde]
> 7.00	COc1cc(-n2cnc(Nc3nc(-c4ccccc4CO)nn4cccc34)c2)cc(OC)c1OC [Compound 137a, (2-(4-((1-(3,4,5-trimethoxyphenyl)-1H-imidazol-4-yl)amino)pyrrolo[2,1-f][1,2,4]triazin-2-yl)phenyl)methanol]
> 7.00	COc1cc(-n2cnc(Nc3ncnn4cccc34)c2)cc(OC)c1OC [Compound 187b, N-(1-(3,4,5-trimethoxyphenyl)-1H-imidazol-4-yl)pyrrolo[2,1-f][1,2,4]triazin-4-amine]
> 7.00	COc1cc(-n2cnc(Nc3nc(N4CCC[C@H]4CO)nn4c(CO)ccc34)c2)cc(OC)c1OC [Compound 101c, (S)-(1-(7-(hydroxymethyl)-4-((1-(3,4,5-trimethoxyphenyl)-1H-imidazol-4-yl)amino)pyrrolo[2,1-f][1,2,4]triazin-2-yl)pyrrolidin-2-yl)methanol]
> 7.00	COc1cc(-n2cnc(Nc3nc(N4C(=O)CC[C@H]4CO)nc4ccoc34)c2)cc(OC)c1OC [Compound 270a, (S)-5-(hydroxymethyl)-1-(4-((1-(3,4,5-trimethoxyphenyl)-1H-imidazol-4-yl)amino)furo[3,2-d]pyrimidin-2-yl)pyrrolidin-2-one]
> 7.00	COc1cc(-n2cnc(Nc3nc(N4CCC[C@H]4C(N)=O)nc4scnc34)c2)cc(OC)c1OC [Compound 158b, (S)-1-(7-((1-(3,4,5-trimethoxyphenyl)-1H-imidazol-4-yl)amino)thiazolo[5,4-d]pyrimidin-5-yl)pyrrolidine-2-carboxamide]
